The structures appear in SMILES notation.

As a reminder, the DC50 is the midpoint of the concentration-degradation curve.

The target in the test is T1, WT BTK protein (Homo sapiens, UniProt Q06187).
T1 construct: measured for intracellular BTK protein levels by Western blotting; endogenous in cells; host or cells: TMD-8 or RAMOS cells
T1 sequence (Q06187 whole entry): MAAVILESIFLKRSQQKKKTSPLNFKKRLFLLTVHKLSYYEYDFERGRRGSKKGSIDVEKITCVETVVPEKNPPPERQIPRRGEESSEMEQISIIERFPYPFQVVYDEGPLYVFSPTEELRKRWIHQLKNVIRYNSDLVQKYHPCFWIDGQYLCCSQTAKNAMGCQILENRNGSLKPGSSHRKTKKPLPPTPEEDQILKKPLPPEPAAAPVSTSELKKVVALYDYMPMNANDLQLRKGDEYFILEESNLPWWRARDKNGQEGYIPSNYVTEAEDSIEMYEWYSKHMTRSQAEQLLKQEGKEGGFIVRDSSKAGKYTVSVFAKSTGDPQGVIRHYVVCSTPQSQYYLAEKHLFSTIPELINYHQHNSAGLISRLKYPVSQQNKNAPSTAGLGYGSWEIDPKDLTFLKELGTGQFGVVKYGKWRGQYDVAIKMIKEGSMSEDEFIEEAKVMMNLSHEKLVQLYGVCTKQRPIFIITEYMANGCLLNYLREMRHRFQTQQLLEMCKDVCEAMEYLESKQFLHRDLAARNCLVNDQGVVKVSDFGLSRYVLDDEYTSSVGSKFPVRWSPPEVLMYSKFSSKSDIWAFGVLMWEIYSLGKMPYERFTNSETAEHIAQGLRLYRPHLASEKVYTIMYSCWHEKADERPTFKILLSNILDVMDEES
The test is described as follows: BTK protein degradation assay (Western blotting), WT BTK. The following applies: concentration range accounting for 50% degradation of WT BTK protein, TMD-8 or RAMOS cells, 24 hours. The class given is cell-based. In short, it runs like this:
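BTK levels were read by Western blotting (GAPDH and β-actin normalisers) in RIPA lysates of TMD-8 cells exposed to compounds for 24 h at 1×10^6 cells/mL. Results scored in ranges of the concentration producing 50% loss of WT BTK.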
A general note: A western blot detects proteins with antibodies after separation by electrophoresis.
With `Cn1nc(Nc2c(Cl)cccc2Cl)c2cnc(Nc3ccc4c(c3)CN(CC3CCN(c5ccc6c(c5)C(=O)N(C5CCC(=O)NC5=O)C6=O)CC3)CC4)nc21` (stereo not drawn) [Compound 82, 5-(4-((7-((3-((2,6-Dichlorophenyl)amino)-1-methyl-1H-pyrazolo[3,4-d]pyrimidin-6-yl)amino)-3,4-dihydroisoquinolin-2 (1H)-yl)methyl)piperidin-1-yl)-2-(2,6-dioxopiperidin-3-yl)isoindoline-1,3-dione], the 50% degradation concentration (DC50) was in the range of 0.1 to 10 nM. The same measure for `Cc1cccc(C)c1Nc1nn(C)c2nc(Nc3ccc(C4CCN(C(=O)/C(C#N)=C/C5CCN(C(=O)CNc6ccc7c(c6)C(=O)N(C6CCC(=O)NC6=O)C7=O)CC5)CC4)cc3)ncc12` (stereo not drawn) [Compound 261, (E)-2-(4-(4-((3-((2,6-Dimethylphenyl)amino)-1-methyl-1H-pyrazolo[3,4-d]pyrimidin-6-yl)amino)phenyl)piperidine-1-carbonyl)-3-(1-((2-(2,6-dioxopiperidin-3-yl)-1,3-dioxoisoindolin-5-yl)glycyl)piperidin-4-yl)acrylonitrile]: 0.1 to 10 nM. The same measure for `Cc1cccc(C)c1Nc1nn(C)c2nc(Nc3ccc4c(c3)CN(C(=O)/C(C#N)=C/C3CCN(C(=O)c5ccc6c(c5)CN(C5CCC(=O)NC5=O)C6=O)CC3)CC4)ncc12` (stereo not drawn) [Compound 259, (E)-2-(7-((3-((2,6-Dimethylphenyl)amino)-1-methyl-1H-pyrazolo[3,4-d]pyrimidin-6-yl)amino)-1,2,3,4-tetrahydroisoquinoline-2-carbonyl)-3-(1-(2-(2,6-dioxopiperidin-3-yl)-1-oxoisoindoline-5-carbonyl)piperidin-4-yl)acrylonitrile]: 10 to 1000 nM. The same measure for `Cc1cccc(C)c1Nc1nn(C)c2nc(Nc3ccc4c(c3)CN(CC3CCN(C(=O)C5CCN(c6cc7c(cc6F)C(=O)N(C6CCC(=O)NC6=O)C7=O)CC5)CC3)CC4)ncc12` (stereo not drawn) [Compound 210, 5-(4-(4-((7-((3-((2,6-Dimethylphenyl)amino)-1-methyl-1H-pyrazolo[3,4-d]pyrimidin-6-yl)amino)-3,4-dihydroisoquinolin-2 (1H)-yl)methyl)piperidine-1-carbonyl)piperidin-1-yl)-2-(2,6-dioxopiperidin-3-yl)-6-fluoroisoindoline-1,3-dione]: 0.1 to 10 nM; for `Cc1cc(NC(=O)c2cccc(C(F)(F)F)c2)ccc1Nc1nn(C)c2nc(Nc3ccc4c(c3)CN(CC3CCN(c5ccc6c(c5)C(=O)N(C5CCC(=O)NC5=O)C6=O)CC3)CC4)ncc12` (stereo not drawn) [Compound 122, N-(4-((6-((2-((1-(2-(2,6-Dioxopiperidin-3-yl)-1,3-dioxoisoindolin-5-yl)piperidin-4-yl)methyl)-1,2,3,4-tetrahydroisoquinolin-7-yl)amino)-1-methyl-1H-pyrazolo[3,4-d]pyrimidin-3-yl)amino)-3-methylphenyl)-3-(trifluoromethyl)benzamide]: 10 to 1000 nM. On to `Cc1cc(F)cc(C)c1Nc1nn(C)c2nc(Nc3ccc4c(c3)CN(CC3CCN(c5ccc6c(c5)C(=O)N(C5CCC(=O)NC5=O)C6=O)CC3)CC4)ncc12` (stereo not drawn) [Compound 221, 2-(2,6-dioxopiperidin-3-yl)-5-(4-((7-((3-((4-fluoro-2,6-dimethylphenyl)amino)-1-methyl-1H-pyrazolo[3,4-d]pyrimidin-6-yl)amino)-3,4-dihydroisoquinolin-2 (1H)-yl)methyl)piperidin-1-yl)isoindoline-1,3-dione], for which the DC50 lay within 0.1 to 10 nM. For `Cc1cccc(C)c1Nc1nn(C)c2nc(Nc3ccc4c(c3)CN(CC3CCN(C(=O)c5ccc6c(c5)CN(C5CCC(=O)NC5=O)C6=O)CC3)CC4)ncc12` (stereo not drawn) [Compound 258, 3-(5-(4-((7-((3-((2,6-Dimethylphenyl)amino)-1-methyl-1H-pyrazolo[3,4-d]pyrimidin-6-yl)amino)-3,4-dihydroisoquinolin-2 (1H)-yl)methyl)piperidine-1-carbonyl)-1-oxoisoindolin-2-yl)piperidin-2,6-one] the value was 0.1 to 10 nM. Take `Cc1cccc(C)c1Nc1nn(C)c2nc(Nc3ccc4c(c3)CN(CC3CCN(CC(=O)Nc5ccc6c(c5)C(=O)N(C5CCC(=O)NC5=O)C6=O)CC3)CC4)ncc12` (stereo not drawn) [Compound 90, 2-(4-((7-((3-((2,6-Dimethylphenyl)amino)-1-methyl-1H-pyrazolo[3,4-d]pyrimidin-6-yl)amino)-3,4-dihydroisoquinolin-2 (1H)-yl)methyl)piperidin-1-yl)-N-(2-(2,6-dioxopiperidin-3-yl)-1,3-dioxoisoindolin-5-yl)acetamide]: the DC50 lay in the range of 10 to 1000 nM. The same measure for `Cc1cccc(C)c1Nc1nn(C)c2nc(Nc3ccc4c(c3)CN(C(=O)C3(F)CCN(C(=O)C5CCN(c6ccc7c(c6)C(=O)N(C6CCC(=O)NC6=O)C7=O)CC5)CC3)CC4)ncc12` (stereo not drawn) [Compound 246, 5-(4-(4-(7-((3-((2,6-dimethylphenyl)amino)-1-methyl-1H-pyrazolo[3,4-d]pyrimidin-6-yl)amino)-1,2,3,4-tetrahydroisoquinoline-2-carbonyl)-4-fluoropiperidine-1-carbonyl)piperidin-1-yl)-2-(2,6-dioxopiperidin-3-yl)isoindoline-1,3-dione]: 0.1 to 10 nM; for `Cc1cccc(C)c1Nc1nn(C)c2nc(Nc3ccc(N4CCN(CC5CCN(c6ccc7c(n6)C(=O)N(C6CCC(=O)NC6=O)C7=O)CC5)CC4)cc3)ncc12` (stereo not drawn) [Compound 188, 3-(2-(4-((4-(4-((3-((2,6-Dimethylphenyl)amino)-1-methyl-1H-pyrazolo[3,4-d]pyrimidin-6-yl)amino)phenyl)piperazin-1-yl)methyl)piperidin-1-yl)-5-oxo-5,7-dihydro-6H-pyrrolo[3,4-b]pyridin-6-yl)piperidin-2,6-one]: 0.1 to 10 nM. In the case of `Cc1cccc(C)c1Nc1nn(C)c2nc(Nc3ccc(F)c(C4=CCN(C(=O)C5CN(c6ccc7c(c6)C(=O)N(C6CCC(=O)NC6=O)C7=O)C5)CC4)c3)ncc12` (stereo not drawn) [Compound 263, 5-(3-(4-(5-((3-((2,6-Dimethylphenyl)amino)-1-methyl-1H-pyrazolo[3,4-d]pyrimidin-6-yl)amino)-2-fluorophenyl)-1,2,3,6-tetrahydropyridine-1-carbonyl)azetidin-1-yl)-2-(2,6-dioxopiperidin-3-yl)isoindoline-1,3-dione], the DC50 lay within 0.1 to 10 nM. As to `Cc1cccc(C)c1Nc1nn(C)c2nc(Nc3ccc4c(c3)CN(C(=O)CN3CCN(c5ccc6c(c5)CN(C5CCC(=O)NC5=O)C6=O)CC3)CC4)ncc12` (stereo not drawn) [Compound 104, 3-(5-(4-(2-(7-((3-((2,6-Dimethylphenyl)amino)-1-methyl-1H-pyrazolo[3,4-d]pyrimidin-6-yl)amino)-3,4-dihydroisoquinolin-2 (1H)-yl)-2-oxoethyl)piperazin-1-yl)-1-oxoisoindolin-2-yl)piperidin-2,6-one], the DC50 fell in the range of 0.1 to 10 nM. For `Cc1cccc(C)c1Nc1nn(C)c2nc(Nc3ccc4c(c3)CN(CC(O)CN3CCN(c5ccc6c(c5)C(=O)N(C5CCC(=O)NC5=O)C6=O)CC3)CC4)ncc12` (stereo not drawn) [Compound 178, 5-(4-(3-(7-((3-((2,6-Dimethylphenyl)amino)-1-methyl-1H-pyrazolo[3,4-d]pyrimidin-6-yl)amino)-3,4-dihydroisoquinolin-2 (1H)-yl)-2-hydroxypropyl)piperazin-1-yl)-2-(2,6-dioxopiperidin-3-yl)isoindoline-1,3-dione] the value was 0.1 to 10 nM; for `Cc1cccc(C)c1Nc1nn(C)c2nc(Nc3ccc(C4CCN(C[C@@H]5CCN(c6ccc7c(c6)C(=O)N(C6CCC(=O)NC6=O)C7=O)C5)CC4)cc3)ncc12` (stereo partly drawn) [Compound 167, 5-((S)-3-((4-(4-((3-((2,6-Dimethylphenyl)amino)-1-methyl-1H-pyrazolo[3,4-d]pyrimidin-6-yl)amino)phenyl)piperidin-1-yl)methyl)pyrrolidin-1-yl)-2-(2,6-dioxopiperidin-3-yl)isoindoline-1,3-dione], 0.1 to 10 nM. For the molecule `Cc1cccc(C)c1Nc1nn(C)c2nc(Nc3ccc(N4CCN(CC5CN(c6ccc7c(c6)C(=O)N(C6CCC(=O)NC6=O)C7=O)C5)[C@@H](C)C4)cc3)ncc12` (stereo partly drawn) [Compound 185, 5-(3-(((S)-4-(4-((3-((2,6-Dimethylphenyl)amino)-1-methyl-1H-pyrazolo[3,4-d]pyrimidin-6-yl)amino)phenyl)-2-methylpiperazin-1-yl)methyl)azetidin-1-yl)-2-(2,6-dioxopiperidin-3-yl)isoindoline-1,3-dione], the half-maximal degradation concentration (DC50) was 0.1 to 10 nM. Consider `Cc1cccc(C)c1Nc1nn(C)c2nc(Nc3ccc(N4CCN(C[C@@H]5CCN(c6ccc7c(c6)C(=O)N(C6CCC(=O)NC6=O)C7=O)C5)CC4)cc3)ncc12` (stereo partly drawn) [Compound 180, 5-((S)-3-((4-(4-((3-((2,6-Dimethylphenyl)amino)-1-methyl-1H-pyrazolo[3,4-d]pyrimidin-6-yl)amino)phenyl)piperazin-1-yl)methyl)pyrrolidin-1-yl)-2-(2,6-dioxopiperidin-3-yl)isoindoline-1,3-dione], for which the DC50 was 0.1 to 10 nM. The same measure for `Cc1cccc(C)c1Nc1nn(C)c2nc(Nc3ccc4c(c3)CN(C(=O)/C(C#N)=C/C3CCN(C(=O)CNc5ccc6c(c5)C(=O)N(C5CCC(=O)NC5=O)C6=O)CC3)CC4)ncc12` (stereo not drawn) [Compound 260, (E)-2-(7-((3-((2,6-Dimethylphenyl)amino)-1-methyl-1H-pyrazolo[3,4-d]pyrimidin-6-yl)amino)-1,2,3,4-tetrahydroisoquinoline-2-carbonyl)-3-(1-((2-(2,6-dioxopiperidin-3-yl)-1,3-dioxoisoindolin-5-yl)glycyl)piperidin-4-yl)acrylonitrile]: 0.1 to 10 nM. The same measure for `Cc1cccc(C)c1Nc1nn(C)c2nc(Nc3ccc(N4CCN(C5CN(c6ccc7c(c6)C(=O)N(C6CCC(=O)NC6=O)C7=O)C5)CC4)nc3)ncc12` (stereo not drawn) [Compound 158, 5-(3-(4-(5-((3-((2,6-Dimethylphenyl)amino)-1-methyl-1H-pyrazolo[3,4-d]pyrimidin-6-yl)amino)pyridin-2-yl)piperazin-1-yl)azetidin-1-yl)-2-(2,6-dioxopiperidin-3-yl)isoindoline-1,3-dione]: 0.1 to 10 nM.

Source of the values: patent publication US12161722B2, “Bifunctional heterocyclic compound having BTK degradation function via ubiquitin proteasome pathway, and use thereof” (KOREA RESEARCH INSTITUTE OF CHEMICAL TECHNOLOGY, priority 2021, dated 2024).
